The source of these data is patent US20070213339A1 (Bayer Pharmaceuticals Corporation, priority 2004, published 2007).

Where only a bound is given, the exact number is not on record here.

For the assay, the system named is Colo205 human colon carcinoma cell line. In words: In vitro tumor cell proliferation assay (MTS, CellTiter 96 Aqueous One Solution). As to conditions: COLO 205, Colo205 cells, 72 hours compound exposure, MTS absorbance at 490 nm, read-out: IC50 (concentration of test compound required to inhibit proliferation of 50% of the cells). Type of assay: cell-based. A digest of the protocol: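 Proliferation measured as MTS tetrazolium reduction (490 nm) after 72 h compound exposure at 37 °C. Cells plated at 2000 per well in serum-supplemented RPMI-1640; duplicate 5-point dilutions topping out at 10-20 μM. Percent inhibition versus untreated and cell-free wells, IC50 derived by linear regression.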
Consider `CCN(CC)Cc1ccc(-n2cc(C(=O)O)c(=O)c3cc(F)c(N4CCN(c5ccccc5C#N)CC4)c(OC)c32)cc1` [Example 117, 7-[4-(2-cyanophenyl)piperazin-1-yl]-1-{4-[(diethylamino)methyl]phenyl}-6-fluoro-8-methoxy-4-oxo-1,4-dihydroquinoline-3-carboxylic acid], for which the IC50 is less than 500 nM.
As for `CCN(CC)Cc1ccc(-n2cc(C(=O)O)c(=O)c3cc(F)c(N4CCN(c5ccc(Cl)cc5)CC4)c(OC)c32)cc1` [Example 118, 7-[4-(4-chlorophenyl)piperazin-1-yl]-1-{4-[(diethylamino)methyl]phenyl}-6-fluoro-8-methoxy-4-oxo-1,4-dihydroquinoline-3-carboxylic acid], the figure is less than 500 nM.
As for `O=C(O)c1cn(-c2ccc(CN3CCCC3)cc2)c2c(OC(F)(F)F)c(N3CCN(c4cccc(Cl)c4)CC3)c(F)cc2c1=O` [Example 119, 7-[4-(3-chlorophenyl)piperazin-1-yl]-6-fluoro-4-oxo-1-[4-(pyrrolidin-1-ylmethyl)phenyl]-8-(trifluoromethoxy)-1,4-dihydroquinoline-3-carboxylic acid], the figure is less than 500 nM.
Take `Cc1cccc(N2CCN(c3c(F)cc4c(=O)c(C(=O)O)cn(-c5ccc(CN6CCCC6)cc5)c4c3OC(F)(F)F)CC2)n1` [Example 120, 6-fluoro-7-[4-(6-methylpyridin-2-yl)piperazin-1-yl]-4-oxo-1-[4-(pyrrolidin-1-ylmethyl)phenyl]-8-(trifluoromethoxy)-1,4-dihydroquinoline-3-carboxylic acid]: the IC50 was less than 500 nM.
In the case of `O=C(O)c1cn(-c2ccc(CN3CCCC3)cc2)c2c(OC(F)(F)F)c(N3CCN(c4ccc(F)cc4)CC3)c(F)cc2c1=O` [Example 121, 6-fluoro-7-[4-(4-fluorophenyl)piperazin-1-yl]-4-oxo-1-[4-(pyrrolidin-1-ylmethyl)phenyl]-8-(trifluoromethoxy)-1,4-dihydroquinoline-3-carboxylic acid], the IC50 was less than 500 nM.
For `Cc1cccnc1N1CCN(c2c(F)cc3c(=O)c(C(=O)O)cn(-c4ccc(CN5CCCC5)cc4)c3c2OC(F)(F)F)CC1` [Example 122, 6-fluoro-7-[4-(3-methylpyridin-2-yl)-piperazin-1-yl]-4-oxo-1-[4-(pyrrolidin-1-ylmethyl)phenyl]-8-(trifluoromethoxy)-1,4-dihydroquinoline-3-carboxylic acid] the value was less than 500 nM; for `O=C(O)c1cn(-c2ccc(CN3CCCC3)cc2)c2c(OC(F)(F)F)c(N3CCN(c4ncccn4)CC3)c(F)cc2c1=O` [Example 123, 6-fluoro-4-oxo-7-(4-pyrimidin-2-yl-piperazin-1-yl)-1-[4-(pyrrolidin-1-ylmethyl)phenyl]-8-(trifluoromethoxy)-1,4-dihydroquinoline-3-carboxylic acid], less than 500 nM.
For `O=C(O)c1cn(-c2ccc(CN3CCCC3)cc2)c2c(OC(F)(F)F)c(N3CCN(c4ccccn4)CC3)c(F)cc2c1=O` [Example 124, 6-fluoro-4-oxo-7-(4-pyridin-2-yl-piperazin-1-yl)-1-[4-(pyrrolidin-1-ylmethyl)phenyl]-8-(trifluoromethoxy)-1,4-dihydroquinoline-3-carboxylic acid] the value was less than 500 nM.
For `N#Cc1cccnc1N1CCN(c2c(F)cc3c(=O)c(C(=O)O)cn(-c4ccc(CN5CCCC5)cc4)c3c2OC(F)(F)F)CC1` [Example 125, 7-[4-(3-cyanopyridin-2-yl)piperazin-1-yl]-6-fluoro-4-oxo-1-[4-(pyrrolidin-1-ylmethyl)phenyl]-8-(trifluoromethoxy)-1,4-dihydroquinoline-3-carboxylic acid] the value was less than 500 nM; for `CN(C)Cc1ccc(-n2cc(C(=O)O)c(=O)c3cc(F)c(N4CCN(c5ccccn5)CC4)c(OC(F)(F)F)c32)cc1` [Example 126, 1-{4-[(dimethylamino)methyl]phenyl}-6-fluoro-4-oxo-7-(4-pyridin-2-ylpiperazin-1-yl)-8-(trifluoromethoxy)-1,4-dihydroquinoline-3-carboxylic acid], less than 500 nM.
Turning to `Cc1cccc(N2CCN(c3c(F)cc4c(=O)c(C(=O)O)cn(-c5ccc(CN(C)C)cc5)c4c3OC(F)(F)F)CC2)n1` [Example 127, 1-{4-[(dimethylamino)methyl]phenyl}-6-fluoro-7-[4-(6-methylpyridin-2-yl)piperazin-1-yl]-4-oxo-8-(trifluoromethoxy)-1,4-dihydroquinoline-3-carboxylic acid], the IC50 was less than 500 nM.
Turning to `CN(C)Cc1ccc(-n2cc(C(=O)O)c(=O)c3cc(F)c(N4CCN(c5ncccn5)CC4)c(OC(F)(F)F)c32)cc1` [Example 128, 1-{4-[(dimethylamino)methyl]phenyl}-6-fluoro-4-oxo-7-(4-pyrimidin-2-ylpiperazin-1-yl)-8-(trifluoromethoxy)-1,4-dihydroquinoline-3-carboxylic acid], the IC50 is less than 500 nM.
Turning to `Cc1cccnc1N1CCN(c2c(F)cc3c(=O)c(C(=O)O)cn(-c4ccc(CN(C)C)cc4)c3c2OC(F)(F)F)CC1` [Example 129, 1-{4-[(dimethylamino)methyl]phenyl}-6-fluoro-7-[4-(3-methylpyridin-2-yl)piperazin-1-yl]-4-oxo-8-(trifluoromethoxy)-1,4-dihydroquinoline-3-carboxylic acid], the IC50 was 500 to 2000 nM.
With `CN(C)Cc1ccc(-n2cc(C(=O)O)c(=O)c3cc(F)c(N4CCN(c5cccc(Cl)c5)CC4)c(OC(F)(F)F)c32)cc1` [Example 130, 7-[4-(3-chlorophenyl)piperazin-1-yl]-1-{4-[(dimethylamino)methyl]phenyl}-6-fluoro-4-oxo-8-(trifluoromethoxy)-1,4-dihydroquinoline-3-carboxylic acid], the IC50 was less than 500 nM.
As for `CN(C)Cc1ccc(-n2cc(C(=O)O)c(=O)c3cc(F)c(N4CCN(c5ccc(F)cc5)CC4)c(OC(F)(F)F)c32)cc1` [Example 131, 1-{4-[(dimethylamino)methyl]phenyl}-6-fluoro-7-[4-(4-fluorophenyl)piperazin-1-yl]-4-oxo-8-(trifluoromethoxy)-1,4-dihydroquinoline-3-carboxylic acid], the IC50 was less than 500 nM.
Turning to `CCN(CC)Cc1ccc(-n2cc(C(=O)O)c(=O)c3cc(F)c(N4CCN(c5ccccn5)CC4)c(OC(F)(F)F)c32)cc1` [Example 132, 1-{4-[(diethylamino)methyl]phenyl}-6-fluoro-4-oxo-7-(4-pyridin-2-ylpiperazin-1-yl)-8-(trifluoromethoxy)-1,4-dihydroquinoline-3-carboxylic acid], the IC50 was less than 500 nM.
As for `CCN(CC)Cc1ccc(-n2cc(C(=O)O)c(=O)c3cc(F)c(N4CCN(c5cc(Cl)ccc5C)CC4)c(OC(F)(F)F)c32)cc1` [Example 134, 7-[4-(5-chloro-2-methylphenyl)piperazin-1-yl]-1-{4-[(diethylamino)methyl]phenyl}-6-fluoro-4-oxo-8-(trifluoromethoxy)-1,4-dihydroquinoline-3-carboxylic acid], the IC50 was 500 to 2000 nM.
For `CCN(CC)Cc1ccc(-n2cc(C(=O)O)c(=O)c3cc(F)c(N4CCN(c5ccccc5F)CC4)c(OC(F)(F)F)c32)cc1` [Example 135, 1-{4-[(diethylamino)methyl]phenyl}-6-fluoro-7-[4-(2-fluorophenyl)piperazin-1-yl]-4-oxo-8-(trifluoromethoxy)-1,4-dihydroquinoline-3-carboxylic acid] the value was less than 500 nM; for `CCN(CC)Cc1ccc(-n2cc(C(=O)O)c(=O)c3cc(F)c(N4CCN(c5cccc(Cl)c5)CC4)c(OC(F)(F)F)c32)cc1` [Example 136, 7-[4-(3-chlorophenyl)piperazin-1-yl]-1-{4-[(diethylamino)methyl]phenyl}-6-fluoro-4-oxo-8-(trifluoromethoxy)-1,4-dihydroquinoline-3-carboxylic acid], less than 500 nM.
As for `CCN(CC)Cc1ccc(-n2cc(C(=O)O)c(=O)c3cc(F)c(N4CCN(c5ccc(F)cc5F)CC4)c(OC(F)(F)F)c32)cc1` [Example 137, 1-{4-[(diethylamino)methyl]phenyl}-7-[4-(2,4-difluorophenyl)piperazin-1-yl]-6-fluoro-4-oxo-8-(trifluoromethoxy)-1,4-dihydroquinoline-3-carboxylic acid], the figure is less than 500 nM; as for `CCN(CC)Cc1ccc(-n2cc(C(=O)O)c(=O)c3cc(F)c(N4CCN(c5ccccc5)CC4)c(OC(F)(F)F)c32)cc1` [Example 138, 1-{4-[(diethylamino)methyl]phenyl}-6-fluoro-4-oxo-7-(4-phenylpiperazin-1-yl)-8-(trifluoromethoxy)-1,4-dihydroquinoline-3-carboxylic acid], less than 500 nM.
As for `C[C@H]1CCCCN1Cc1ccc(-n2cc(C(=O)O)c(=O)c3cc(F)c(N4CCN(c5ncccn5)CC4)c(OC(F)(F)F)c32)cc1` [Example 139, 6-fluoro-1-(4-{[(2S)-2-methylpiperidin-1-yl]methyl}phenyl)-4-oxo-7-(4-pyrimidin-2-ylpiperazin-1-yl)-8-(trifluoromethoxy)-1,4-dihydroquinoline-3-carboxylic acid], the figure is less than 500 nM; as for `O=C(O)c1cn(-c2cccc(CN3CCCCC3)c2)c2c(OC(F)(F)F)c(N3CCN(c4ccccn4)CC3)c(F)cc2c1=O` [Example 140, 6-fluoro-4-oxo-1-[3-(piperidin-1-yl-methyl)phenyl]-7-(4-pyridin-2-ylpiperazin-1-yl)-8-(trifluoromethoxy)-1,4-dihydroquinoline-3-carboxylic acid], 500 to 2000 nM.
As to `O=C(O)c1cn(-c2cccc(CN3CCCCC3)c2)c2c(OC(F)(F)F)c(N3CCN(c4ccc(F)cc4)CC3)c(F)cc2c1=O` [Example 141, 6-fluoro-7-[4-(4-fluorophenyl)piperazin-1-yl]-4-oxo-1-[3-(piperidin-1-ylmethyl)phenyl]-8-(trifluoromethoxy)-1,4-dihydroquinoline-3-carboxylic acid], the IC50 fell in the range of 500 to 2000 nM.
